Measurements as given in ChEMBL document CHEMBL1201862, “PubChem BioAssay data set” (2004).
The source made the active and inactive calls.

Experiments:
[1] = biological target: T1, Nuclear receptor subfamily 0 group B member 1 (Homo sapiens, UniProt P51843); test: Luminescence-based cell-based high throughput dose response assay for inhibitors of the orphan nuclear receptor subfamily 0, group B, member 1 (DAX1; NR0B1). [Related pubchem assays (depositor defined):AID504766, AID504790]; format: functional
T1 sequence (P51843 whole entry): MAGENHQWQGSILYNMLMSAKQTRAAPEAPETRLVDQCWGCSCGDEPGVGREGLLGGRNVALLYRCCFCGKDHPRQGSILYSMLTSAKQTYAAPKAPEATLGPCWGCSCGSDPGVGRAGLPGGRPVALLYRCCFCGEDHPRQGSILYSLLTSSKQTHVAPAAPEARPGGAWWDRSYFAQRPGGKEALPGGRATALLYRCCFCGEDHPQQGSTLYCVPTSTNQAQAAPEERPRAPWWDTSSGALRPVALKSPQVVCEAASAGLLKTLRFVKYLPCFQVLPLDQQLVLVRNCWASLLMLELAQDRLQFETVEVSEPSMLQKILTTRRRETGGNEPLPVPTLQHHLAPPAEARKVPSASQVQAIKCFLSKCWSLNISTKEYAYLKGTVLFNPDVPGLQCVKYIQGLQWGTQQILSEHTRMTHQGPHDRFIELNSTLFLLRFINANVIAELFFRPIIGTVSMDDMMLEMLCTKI

[2] = test system: HEK293; test: cells; format: functional, cell-based; conditions: Homo sapiens
[3] = biological target: Voltage-gated inwardly rectifying potassium channel KCNH2 (Homo sapiens, UniProt Q12809); conditions: Potency;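 note: confirmatory quantitative high-throughput screen measuring inhibition of hERG channel activity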
[4] = cytotoxicity toward NIH3T3 fibroblasts, dose response, counter-screen, cell-based, ATP luminescence, mouse fibroblasts (AID 2010); format: functional;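 note: cells exposed to compound for about 90 hours before reading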
[5] = microbe, parasite or virus in culture; format: functional; conditions: Mycobacterium tuberculosis
[6] = test system: HEK293; test: cells; conditions: Homo sapiens
[7] = HeLa cell cytotoxicity, dose response, cytotoxicity control for MgcRacGAP inhibitor project (AID 624300); format: functional
[8] = Luminescent dose response cell-based high throughput screening assay for inhibitors of the Janus kinase 2 mutant JAK2V617F. [Related pubchem assays: 1446 (Primary screen.), 1521 (Confirmation assay.), 1486 (Counter screen.)]; format: functional
[9] = test system: BJ; test: cytotoxicity toward BJ-TERT fibroblasts, dose response, cell-based, RAS-independent, luminescence (AID 1933); format: functional; conditions: Homo sapiens
[10] = test system: BJ; test: cytotoxicity toward BJ-TERT-LT-ST fibroblasts, dose response, cell-based, RAS-independent, luminescence (AID 1935); format: functional; conditions: Homo sapiens;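 note: BJ fibroblasts immortalized with TERT plus LT and ST oncogenes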
[11] = test system: HEK293; test: cells; conditions: Homo sapiens; remark: listed apart in the source
[12] = inhibitors of intracellular T. cruzi replication, confirmation, NIH3T3 host cells, beta-gal luminescence (AID 2044); format: functional, cell-based;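 note: intracellular parasites grown in NIH/3T3 mouse fibroblasts as host cells; luminescent beta-galactosidase reporter signal from transgenic T. cruzi replicating inside host cells; inhibitors lower the luminescence signal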
[13] = cytotoxicity toward DRD oncogenic fibroblasts, dose response, cell-based, non-viral oncogenic, luminescence (AID 1934); format: functional; conditions: Homo sapiens
[14] = biological target: T2, Rac GTPase-activating protein 1 (Homo sapiens, UniProt Q9H0H5); test: MgcRacGAP GTPase-activating activity inhibitors, confirmation, biochemical, ADP Hunter fluorescence, primary and confirmatory (AID 624330); format: functional
T2 sequence (Q9H0H5 whole entry): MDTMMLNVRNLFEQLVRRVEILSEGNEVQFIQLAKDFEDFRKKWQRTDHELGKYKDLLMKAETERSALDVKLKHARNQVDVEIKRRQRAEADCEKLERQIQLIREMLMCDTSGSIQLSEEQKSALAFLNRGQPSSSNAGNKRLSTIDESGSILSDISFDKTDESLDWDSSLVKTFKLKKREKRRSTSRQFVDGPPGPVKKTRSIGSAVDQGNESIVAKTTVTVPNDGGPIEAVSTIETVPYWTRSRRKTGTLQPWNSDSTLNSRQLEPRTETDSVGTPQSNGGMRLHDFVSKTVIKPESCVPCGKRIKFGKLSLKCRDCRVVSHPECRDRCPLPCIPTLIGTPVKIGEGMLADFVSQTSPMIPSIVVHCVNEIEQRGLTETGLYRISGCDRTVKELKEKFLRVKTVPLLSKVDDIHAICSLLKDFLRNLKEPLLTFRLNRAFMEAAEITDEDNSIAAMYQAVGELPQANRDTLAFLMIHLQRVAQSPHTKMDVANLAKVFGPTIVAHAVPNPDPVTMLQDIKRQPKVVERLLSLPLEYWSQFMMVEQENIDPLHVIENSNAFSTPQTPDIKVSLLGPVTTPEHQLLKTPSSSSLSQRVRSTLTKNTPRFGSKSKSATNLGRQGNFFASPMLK

[15] = test system: BJ; test: cells; format: functional, cell-based; conditions: Homo sapiens
[16] = biological target: T3, DNA repair protein RAD52 homolog (Homo sapiens, UniProt P43351); format: functional, biochemical
T3 sequence (P43351 whole entry): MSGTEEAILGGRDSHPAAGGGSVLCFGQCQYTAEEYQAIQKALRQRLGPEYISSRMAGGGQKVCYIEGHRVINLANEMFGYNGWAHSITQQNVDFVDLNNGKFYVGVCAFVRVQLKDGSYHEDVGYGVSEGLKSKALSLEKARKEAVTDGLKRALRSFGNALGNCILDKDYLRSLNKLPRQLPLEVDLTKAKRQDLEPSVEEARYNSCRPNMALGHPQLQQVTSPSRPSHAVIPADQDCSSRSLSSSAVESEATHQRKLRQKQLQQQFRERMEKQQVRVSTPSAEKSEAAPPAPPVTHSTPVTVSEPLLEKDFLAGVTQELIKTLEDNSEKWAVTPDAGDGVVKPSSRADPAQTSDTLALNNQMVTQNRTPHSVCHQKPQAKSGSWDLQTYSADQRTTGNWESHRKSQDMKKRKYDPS

[17] = biological target: T4, Hexokinase HKDC1 (Homo sapiens, UniProt Q2TB90); test: SAR analysis of small molecule inhibitors of hexokinase domain containing I (HKDC1). [Related pubchem assays (depositor defined):AID493160, AID493190]; format: functional
T4 sequence (Q2TB90 whole entry): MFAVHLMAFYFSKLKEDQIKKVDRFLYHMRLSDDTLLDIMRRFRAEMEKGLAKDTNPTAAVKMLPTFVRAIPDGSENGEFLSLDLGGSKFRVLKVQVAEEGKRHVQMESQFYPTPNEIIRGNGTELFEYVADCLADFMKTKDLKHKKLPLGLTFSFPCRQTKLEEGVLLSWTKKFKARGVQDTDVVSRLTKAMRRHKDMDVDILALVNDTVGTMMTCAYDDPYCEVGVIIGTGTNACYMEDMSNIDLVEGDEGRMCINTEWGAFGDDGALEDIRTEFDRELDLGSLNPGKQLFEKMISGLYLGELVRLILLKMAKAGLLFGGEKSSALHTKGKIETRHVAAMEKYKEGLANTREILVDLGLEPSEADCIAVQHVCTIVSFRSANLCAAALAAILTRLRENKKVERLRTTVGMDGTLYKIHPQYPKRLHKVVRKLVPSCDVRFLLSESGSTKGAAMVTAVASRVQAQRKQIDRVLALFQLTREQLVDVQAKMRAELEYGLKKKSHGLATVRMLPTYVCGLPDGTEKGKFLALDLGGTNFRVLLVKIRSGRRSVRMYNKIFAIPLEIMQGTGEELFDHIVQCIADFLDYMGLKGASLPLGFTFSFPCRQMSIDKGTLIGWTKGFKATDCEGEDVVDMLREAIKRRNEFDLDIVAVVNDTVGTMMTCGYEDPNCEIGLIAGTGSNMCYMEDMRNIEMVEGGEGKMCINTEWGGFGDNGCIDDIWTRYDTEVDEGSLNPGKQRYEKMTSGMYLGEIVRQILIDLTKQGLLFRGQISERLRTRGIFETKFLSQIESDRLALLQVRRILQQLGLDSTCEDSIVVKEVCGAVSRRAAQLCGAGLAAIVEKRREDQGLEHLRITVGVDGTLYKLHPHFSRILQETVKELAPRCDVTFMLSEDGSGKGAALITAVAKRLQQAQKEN

[18] = biological target: T5, Hexokinase-1 (Homo sapiens, UniProt P19367); test: SAR analysis of small molecule inhibitors of hexokinase domain containing I (HKDC1) in the hexokinase 1 selectivity assay. [Related pubchem assays (depositor defined):AID493160, AID493190]; format: functional
T5 sequence (P19367 whole entry): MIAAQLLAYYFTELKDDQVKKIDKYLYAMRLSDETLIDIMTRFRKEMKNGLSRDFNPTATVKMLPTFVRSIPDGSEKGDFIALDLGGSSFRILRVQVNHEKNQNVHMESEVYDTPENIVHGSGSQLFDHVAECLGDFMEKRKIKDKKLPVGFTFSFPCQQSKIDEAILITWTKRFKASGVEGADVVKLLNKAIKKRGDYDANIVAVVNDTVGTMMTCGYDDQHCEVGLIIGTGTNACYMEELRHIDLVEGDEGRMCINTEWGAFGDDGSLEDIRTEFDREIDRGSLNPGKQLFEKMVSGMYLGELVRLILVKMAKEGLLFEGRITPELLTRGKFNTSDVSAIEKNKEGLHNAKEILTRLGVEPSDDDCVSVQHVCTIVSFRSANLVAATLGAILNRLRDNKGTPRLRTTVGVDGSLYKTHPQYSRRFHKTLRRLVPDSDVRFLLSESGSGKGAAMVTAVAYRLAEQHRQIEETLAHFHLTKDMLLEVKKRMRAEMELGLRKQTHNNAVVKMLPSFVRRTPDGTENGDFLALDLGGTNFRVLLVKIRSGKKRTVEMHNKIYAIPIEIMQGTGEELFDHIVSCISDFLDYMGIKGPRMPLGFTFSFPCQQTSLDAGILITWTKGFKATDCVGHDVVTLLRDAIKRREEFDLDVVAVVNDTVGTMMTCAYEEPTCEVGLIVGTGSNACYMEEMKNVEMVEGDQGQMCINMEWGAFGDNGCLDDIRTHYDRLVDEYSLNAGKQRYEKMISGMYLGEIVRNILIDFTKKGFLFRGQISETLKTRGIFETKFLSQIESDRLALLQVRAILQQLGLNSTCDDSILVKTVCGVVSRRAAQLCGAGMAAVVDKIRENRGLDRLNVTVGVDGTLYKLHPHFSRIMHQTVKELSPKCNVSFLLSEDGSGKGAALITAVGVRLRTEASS

[19] = biological target: Glycogen synthase kinase-3 beta (Homo sapiens, UniProt P49841); test: Inhibition of Human GSK-3 beta Activity Measured in Biochemical System Using Microfluidics - 2063-05_Inhibitor_Dose_DryPowder_Activity. [Related pubchem assays (depositor defined):AID2709]
[20] = biological target: Glycogen synthase kinase-3 alpha (Homo sapiens, UniProt P49840); test: Inhibition of Human GSK-3 alpha Activity Measured in Biochemical System Using Microfluidics - 2063-06_Inhibitor_Dose_DryPowder_Activity. [Related pubchem assays (depositor defined):AID2709]
[21] = biological target: T4, Hexokinase HKDC1; test: HKDC1 hexokinase inhibitors, SAR follow-up, biochemical, set 2 (AID 588355); format: functional
[22] = biological target: T5, Hexokinase-1; test: HK1 enzyme inhibition by HKDC1 hits, SAR follow-up, selectivity assay for HKDC1 inhibitor project, biochemical, set 2, resazurin fluorescence coupled readout (AID 588356); format: functional
[23] = test system: Escherichia coli; test: microbe, parasite or virus in culture
[24] = test system: Streptococcus sp. 'group A'; test: growth inhibition of control SK(-) GAS strain, dose response, counter-screen for streptokinase expression inhibitor project, luminescence, kanamycin, BacTiterGlo, confirmation (AID 1900); format: functional, organism-based
[25] = test system: Streptococcus; test: Group A Streptococcus viability loss, dose response, counter-screen for streptokinase expression inhibitor project, luminescence, BacTiterGlo (AID 1915); format: functional, organism-based;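 note: potency for reduction of bacterial viability or growth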

Glycogen synthase kinase-3 beta, sequence (P49841 whole entry): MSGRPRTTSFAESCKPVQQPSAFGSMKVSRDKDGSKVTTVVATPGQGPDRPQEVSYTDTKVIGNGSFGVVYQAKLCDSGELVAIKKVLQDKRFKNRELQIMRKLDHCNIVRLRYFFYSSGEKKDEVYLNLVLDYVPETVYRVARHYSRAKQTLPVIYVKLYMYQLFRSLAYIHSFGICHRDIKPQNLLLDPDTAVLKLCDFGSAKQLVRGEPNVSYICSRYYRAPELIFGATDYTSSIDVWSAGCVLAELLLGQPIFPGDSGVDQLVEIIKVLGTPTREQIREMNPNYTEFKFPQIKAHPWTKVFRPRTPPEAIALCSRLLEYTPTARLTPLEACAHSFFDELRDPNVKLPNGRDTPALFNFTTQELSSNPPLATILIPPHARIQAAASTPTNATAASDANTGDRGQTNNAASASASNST
Glycogen synthase kinase-3 alpha, sequence (P49840 whole entry): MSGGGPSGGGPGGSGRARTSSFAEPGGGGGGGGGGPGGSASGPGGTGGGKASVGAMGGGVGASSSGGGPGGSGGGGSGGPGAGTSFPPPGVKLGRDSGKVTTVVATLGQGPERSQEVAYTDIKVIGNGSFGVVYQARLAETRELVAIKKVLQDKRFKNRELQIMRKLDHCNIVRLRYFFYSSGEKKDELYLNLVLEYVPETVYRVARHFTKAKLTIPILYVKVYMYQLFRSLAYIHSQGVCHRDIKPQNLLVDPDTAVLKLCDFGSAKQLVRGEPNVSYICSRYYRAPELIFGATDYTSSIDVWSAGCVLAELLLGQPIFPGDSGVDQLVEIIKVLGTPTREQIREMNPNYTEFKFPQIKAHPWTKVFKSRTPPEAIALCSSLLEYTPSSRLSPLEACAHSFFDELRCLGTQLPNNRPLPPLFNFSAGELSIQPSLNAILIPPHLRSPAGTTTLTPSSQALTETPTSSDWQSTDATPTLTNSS
Voltage-gated inwardly rectifying potassium channel KCNH2, sequence (Q12809 whole entry): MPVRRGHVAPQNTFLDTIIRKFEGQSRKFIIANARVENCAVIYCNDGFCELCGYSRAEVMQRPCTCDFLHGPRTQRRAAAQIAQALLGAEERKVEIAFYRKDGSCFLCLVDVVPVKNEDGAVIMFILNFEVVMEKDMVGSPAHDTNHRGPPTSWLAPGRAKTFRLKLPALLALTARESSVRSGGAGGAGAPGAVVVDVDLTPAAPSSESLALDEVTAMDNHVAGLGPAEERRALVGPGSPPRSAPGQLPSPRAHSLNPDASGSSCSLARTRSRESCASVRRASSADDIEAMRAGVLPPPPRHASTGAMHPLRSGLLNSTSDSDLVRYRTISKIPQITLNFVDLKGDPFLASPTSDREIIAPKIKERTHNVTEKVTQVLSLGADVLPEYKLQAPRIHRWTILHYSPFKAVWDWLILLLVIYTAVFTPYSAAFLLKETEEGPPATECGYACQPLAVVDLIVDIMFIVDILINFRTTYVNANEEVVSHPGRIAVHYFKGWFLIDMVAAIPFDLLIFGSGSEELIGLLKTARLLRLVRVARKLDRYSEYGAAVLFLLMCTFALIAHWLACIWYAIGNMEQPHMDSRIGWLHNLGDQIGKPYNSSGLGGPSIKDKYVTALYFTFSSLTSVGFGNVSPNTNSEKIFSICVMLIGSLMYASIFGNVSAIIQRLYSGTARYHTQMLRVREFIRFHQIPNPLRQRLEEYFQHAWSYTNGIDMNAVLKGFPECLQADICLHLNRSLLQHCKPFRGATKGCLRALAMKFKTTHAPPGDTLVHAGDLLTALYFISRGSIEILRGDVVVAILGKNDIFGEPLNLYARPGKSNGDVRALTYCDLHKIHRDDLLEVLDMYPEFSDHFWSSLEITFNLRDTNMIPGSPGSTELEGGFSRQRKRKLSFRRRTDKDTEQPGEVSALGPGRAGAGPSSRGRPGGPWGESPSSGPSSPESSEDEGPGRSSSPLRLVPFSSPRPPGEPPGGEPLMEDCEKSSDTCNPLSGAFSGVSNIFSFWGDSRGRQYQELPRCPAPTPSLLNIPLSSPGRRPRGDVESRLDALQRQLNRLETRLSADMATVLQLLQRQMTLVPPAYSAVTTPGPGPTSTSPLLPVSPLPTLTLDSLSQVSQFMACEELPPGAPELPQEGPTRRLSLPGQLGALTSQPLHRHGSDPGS

Cc1cc([N+](=O)[O-])nn1CCCC(=O)NC1CCCCC1
IC50 [1]: > 67.5 µM (inactive) | IC50 [2]: > 67.5 µM (inactive)

CCCCCC/C(C=O)=C\c1ccccc1
AC50 [3]: 0.0501 µM (inconclusive)

Cc1cc2[nH]c3c(c[n+](C)c4ccccc34)c2cc1C
EC50 [4]: 6.13 µM (active) | CC50 [5]: 2.06 µM (active) | EC50 [6]: > 59.7 µM (inactive) | CC50 [7]: 11.8 µM (active) | IC50 [8]: 0.639 µM (active) | EC50 [9]: 3.9 µM (active) | EC50 [10]: 5.36 µM (inconclusive) | EC50 [11]: > 59.7 µM (inactive) | EC50 [12]: 0.68 µM (active) | EC50 [13]: 5.3 µM (active) | IC50 [14]: 36.2 µM (active) | EC50 [15]: 5.11 µM (inconclusive) | AC50 [16]: 0.372 µM (active)

COc1cc2c(cc1OC)-c1cc(NCc3cccnc3)nc(=O)n1CC2
IC50 [17]: > 80 µM (inactive) | IC50 [18]: > 80 µM (inactive)

CCCCOC(=O)C1C(C)=Nc2ncnn2C1c1cccc(OC)c1OC (stereo not given)
AC50 [19]: 0.538 µM (active) | AC50 [20]: 0.989 µM (active)

CC(=O)NC1C(=O)N(Cc2ccccc2)c2ccc(C)cc21 (stereo not given)
IC50 [21]: > 80 µM (inactive) | IC50 [22]: > 80 µM (inactive)

CCN1CCN(c2cc3c(cc2F)c(=O)c(C(=O)O)cn3C2CC2)CC1 [ENROFLOXACIN]
AC50 [23]: 2.46 µM (active) | EC50 [24]: 1.22 µM (active) | EC50 [25]: 1.04 µM (active)
